This note sets out measurements from ChEMBL document CHEMBL1921759, “Antiprotozoal activity of proton-pump inhibitors” (Bioorg Med Chem Lett, 2011).

What all share (format): functional, organism-based
The subject of experiment [1] is Trichomonas vaginalis. The experiment in a line: Antiprotozoan activity against Trichomonas vaginalis.
The test system of experiment [2] is Giardia intestinalis. Briefly: Antiprotozoan activity against Giardia intestinalis. The following applies: Giardia duodenalis.
The test system of experiment [3] is Trichomonas vaginalis. The experiment in a line: Antiprotozoan activity against Trichomonas vaginalis GT3 trophozoites compound treated for 48 hrs measured after 48 hrs washout period. The conditions noted are these: GT3, 48 h.
Experiment [4] relates to Giardia intestinalis. The experiment in a line: Antiprotozoan activity against Giardia intestinalis IMSS:0989:1 trophozoites compound treated for 48 hrs measured after 48 hrs washout period. The following applies: Giardia duodenalis, IMSS:0989:1, 48 h.
For a further experiment, the system named is Entamoeba histolytica. Briefly: Antiprotozoan activity against Entamoeba histolytica HM1-IMSS trophozoites compound treated for 48 hrs measured after 48 hrs washout period.

As usually defined, the IC50 is the point on the concentration scale where inhibition reaches its midpoint. A higher IC50 goes with weaker potency. As for `CN(C)CCSc1nc2c(Cl)cc(Cl)cc2[nH]1`, the IC50 in the experiment on Trichomonas vaginalis [1] turned out to be 72 nM; with Giardia intestinalis [2], 20 nM.

Regarding `Cc1c(OCC(F)(F)F)ccnc1C[S+]([O-])c1nc2ccccc2[nH]1` (centres undefined) [LANSOPRAZOLE], the concentration for half-maximal inhibition (IC50) in the experiment on Trichomonas vaginalis [3] turned out to be 122 nM; in the experiment with Giardia intestinalis [4] it was 73.1 nM; with Entamoeba histolytica, 347 nM.

In the case of `COc1ccc2[nH]c([S+]([O-])Cc3ncc(C)c(OC)c3C)nc2c1` (centres undefined) [OMEPRAZOLE], the IC50 in the experiment with Trichomonas vaginalis [3] is 122 nM; in the experiment with Giardia intestinalis [4], 95.5 nM; in the experiment on Entamoeba histolytica, 492 nM.

Turning to `COc1ccnc(C[S+]([O-])c2nc3cc(OC(F)F)ccc3[nH]2)c1OC` (centres undefined) [PANTOPRAZOLE], the IC50 came out at 75.6 nM in the experiment with Trichomonas vaginalis [3], 15.7 nM in the experiment on Giardia intestinalis [4] and 2.6 nM in the experiment on Entamoeba histolytica.

Consider `COCCCOc1ccnc(C[S+]([O-])c2nc3ccccc3[nH]2)c1C` (centres undefined) [RABEPRAZOLE], for which the IC50 is 106 nM with Trichomonas vaginalis [3], 18.1 nM with Giardia intestinalis [4] and 23.7 nM in the experiment with Entamoeba histolytica.
